# Laboratory results: US10483329B2, “Hole transporting material, hole transporting layer, OLED display panel electronic device comprising the same” (SHANGHAI TIANMA AM-OLED CO., LTD., priority 2016, dated 2019)
# Assay: Solubility in NMP
# Type: physicochemical
# Details: organic solvent or mixture; solvent NMP (N-methylpyrrolidone)
row,Compound,solubility [mg/mL]
1,"CC1(C)c2cc(N(c3ccc(-c4ccccc4)cc3)c3ccc(-c4ccccc4)cc3)ccc2-c2ccc(N(c3ccc(-c4ccccc4)cc3)c3ccc(-c4ccccc4)cc3)cc21 [Comparison Example 2, reference compound]",5.2
2,"Cc1cccc(C)c1-c1ccc(N(c2ccc(-c3ccccc3)cc2)c2ccc(-c3ccc(N(c4ccc(-c5ccccc5)cc4)c4ccc(-c5c(C)cccc5C)cc4)cc3)cc2)cc1 [Comparison Example 3, reference compound]",2.9
3,"c1ccc(-c2ccc(N(c3ccc(-c4ccccc4)cc3)c3ccc(N(c4ccc(-c5ccccc5)cc4)c4ccc(-c5ccccc5)cc4)cc3)cc2)cc1 [Comparison Example 4, reference compound]",2.2
4,Cc1cc(-c2ccc(N(c3ccc(-c4ccccc4)cc3)c3ccc4c(c3)C(C)(C)c3ccccc3-4)cc2)cc(C)c1N(c1ccc(-c2ccccc2)cc1)c1ccc2c(c1)C(C)(C)c1ccccc1-2 [Example 1],22

# More lines, now with the values ahead:
row,solubility [mg/mL],Compound
1,28,Cc1cccc(-c2ccc(N(c3ccc(-c4cccc(C)c4)cc3)c3ccc4c(c3)C(C)(C)c3cc(N(c5ccc(-c6cccc(C)c6)cc5)c5ccc(-c6cccc(C)c6)cc5)ccc3-4)cc2)c1 [Example 2]
2,30,Cc1cccc(C)c1-c1ccc(N(c2ccc3c(c2)C(C)(C)c2ccccc2-3)c2ccc3c(c2)C(C)(C)c2cc(N(c4ccc(-c5c(C)cccc5C)cc4)c4ccc5c(c4)C(C)(C)c4ccccc4-5)ccc2-3)cc1 [Example 3]
3,35,Cc1cc(N(c2ccc3c(c2)C(C)(C)c2ccccc2-3)c2ccc3c(c2)C(C)(C)c2ccccc2-3)ccc1-c1ccc(N(c2ccc3c(c2)C(C)(C)c2ccccc2-3)c2ccc3c(c2)C(C)(C)c2ccccc2-3)cc1 [Example 4]
